From US20240199964A1, “COMPOUNDS FOR MARKING LIQUIDS” (KUANTAG NANOTEKNOLOJILER GELISTIRME VE URETIM A.S., priority 2022, published 2024)

Legend:
Format in all cases: physicochemical
[1] = fluorescence emission spectroscopy of marker in xylene solution; settings: for Em. max.: xylene solution having 0.5 ppm marker material, excitation 543 nm for (II), 551 nm for (III), experimental; for Em. max. (estimated): not experimental, estimated based on the values of formulas (II) and (III)
Description: (§1) Chemical structures of other examples of anthrapyridone marker compounds derived based on the general formula (I) may be seen below. […] Table 1 identifies side groups of each anthrapyridone compound based on the general formula (I) and their absorption and emission characteristics. In Table 1, only the absorbance maximum and emission maximum values for the anthrapyridone compound markers with formula (II) and formula (III) are experimental. In the spectroscopic measurements, each test sample includes a xylene solution having 0.5 ppm marker material. For emission measurements 543 and 551 nm excitation wavelength are used, respectively. The absorbance maximum and emission maximum values of the formulas (IV)-(X) are not experimental values. These values are estimated values based on the values of the formulas (II) and (III).

[2] = absorbance spectroscopy of marker in xylene solution; settings: for Ab. max.: xylene solution having 0.5 ppm marker material, experimental; for Ab. max. (estimated): not experimental, estimated based on the values of formulas (II) and (III)
Description: as §1

[3] = absorbance spectrum (UV-Vis) of marker in diesel fuel, FIG. 2A; settings: diesel solution, about 0.5 ppm marker material
Description: FIG. 2A is a graph of an absorbance spectrum 10A of the marker material (the anthrapyridone compound of formula (III)) in diesel fuel. The absorbance spectrum 10A includes two absorbance maximums 11A and 11B at about 520 nm and about 550 nm wavelength values of the visible radiation range, respectively. A diesel solution having about 0.5 ppm marker material concentration may be used as a test sample for this spectral analysis. The absorbance spectroscopy instrument may be any type of absorbance spectroscopy instrument that is able to take absorbance spectrum in visible radiation region, i.e., 400-600 nm.
The absorbance spectrum shown in FIG. 2A is taken by a UV-Vis Spectroscopy instrument from Thermo Scientific Co in a test range of about 400-650 nm. The fluorescence spectrum shown in FIG. 2B is taken by a fluorescence spectroscopy instrument from Edinburgh Co.

Row | Em. max. [1] | Ab. max. [2] [nm] | absorbance maximum 11A [3] | absorbance maximum 11B [3] | Em. max. (estimated) [1] | Ab. max. (estimated) [2] | Structure (SMILES)
1 | no emission | 543 | – | – | – | – | Cc1ccc(Nc2ccc3c4c(cc(=O)n3C)-c3ccccc3C(=O)c24)cc1 [formula (II), Solvent Red 52]
2 | 580 nm | 551 | about 520 nm | about 550 nm | – | – | Cn1c(=O)cc2c3c(c(NC4CCCCC4)ccc31)C(=O)c1ccccc1-2 [formula (III), Solvent Red 149]
3 | – | – | – | – | 575-600 nm | 540-560 nm | Cn1c(=O)cc2c3c(c(NCc4ccccc4)ccc31)C(=O)c1ccccc1-2 [formula (IV), Solvent Red 150]
4 | – | – | – | – | 575-600 nm | 540-560 nm | CCCCCCCCCCCNc1ccc2c3c(cc(=O)n2C)-c2ccccc2C(=O)c13 [formula (IX)]
5 | – | – | – | – | 575-600 nm | 540-560 nm | CNc1ccc2c3c(cc(=O)n2C)-c2ccccc2C(=O)c13 [formula (V)]
6 | – | – | – | – | 575-600 nm | 540-560 nm | CCCCC(CC)CNc1ccc2c3c(cc(=O)n2CC(CC)CCCC)-c2ccccc2C(=O)c13 (centres unmarked) [formula (VI)]
7 | – | – | – | – | 575-600 nm | 540-560 nm | CCCCC(CC)CNc1ccc2c3c(cc(=O)n2C)-c2ccccc2C(=O)c13 (centres unmarked) [formula (VII)]
8 | – | – | – | – | 575-600 nm | 540-560 nm | O=C1c2ccccc2-c2cc(=O)n(C3CCCCC3)c3ccc(NC4CCCCC4)c1c23 [formula (VIII)]
9 | – | – | – | – | 575-600 nm | 540-560 nm | O=C1c2ccccc2-c2cc(=O)n(Cc3ccccc3)c3ccc(NCc4ccccc4)c1c23 [formula (X)]
